US9271946B2, “Use of a RAR antagonist or inverse agonist for the treatment of chemotherapy and/or radiation therapy side effects” (IO Therapeutics, Inc., priority 2006, dated 2016)

Experiments:
[1] = system: CPM-induced leukopenic male BDF1 mice; test: cyclophosphamide-induced mouse model of leukopenia, blood cell recovery (Example 1); type: in vivo; details: for lymphocyte counts: mean±SEM
Source text: Mice purchased from Charles River Laboratories (Wilmington, Mass.) were housed individually in micro-isolater cages in a 12-hour light/dark cycle. They were housed under pathogen-free conditions, and received a normal standard diet and water ad libitum. They were acclimated for one week at the Association for Assessment and Accreditation of Laboratory Animal Care (AAALAC) accredited animal facility (Allergan Inc., Irvine, Calif.) prior to experiments. Study designs were approved by the Institutional Animal Care and Use Committee. Body weights were monitored throughout each study. Weight of the mice was in the range of 22-27 g at the day of treatment initiation. The mice were healthy, not previously used in other experimental procedures.
Leukopenia was induced in male BDF1 mice (C57Bl×DBA2, 7.5-12 weeks) by an intra-peritoneal (i.p.) injection of 200 mg/kg Cyclophosphamide (CPM, Sigma-Aldrich, Saint Louis, Mo.) in 0.2 ml saline. The effect of VTP 194310 on leukocyte recovery was evaluated by oral gavage of animals with 1 mg/kg of VTP 194310 as indicated in the results section. VTP 194310 (dissolved in DMSO) was diluted through peanut oil as the vehicle (dosed at 5 ml/kg). Control mice were given DMSO and vehicle alone. As a positive control, granulocytopoiesis was stimulated in CPM-treated mice by a single sub-cutaneous injection of 10 μg/kg pegylated recombinant methionyl human granulocyte colony-stimulating factor (PEG-r-metHuG-CSF) (Neulasta, Pegfilgrastim; Amgen, Thousand Oaks, Calif.) on day 2. Three separate experiments were performed.
Peripheral blood (60 μl) was collected under anaesthesia from the retroorbital sinus of the mice with heparinized capillary tubes and transferred to EDTA-coated microtainer tubes (Becton Dickinson, Franklin Lakes, N.J.). White cell, neutrophil, and lymphocyte counts were obtained for at least three mice per group by diluting the blood 1:4 with PBS containing 5% bovine serum albumin (Fraction V; Sigma, Saint Louis, Mo.), and by using an Advia 120 Hematology System (Bayer HealthCare Diagnostics Division, Tarrytown, N.Y.).

S. aureus MSSA 476 = test: activity against S. aureus, growth on agar and in liquid culture; type: cell-based
Procedure: (§1) The compound was analyzed at an appropriate concentration in several assays for activity against S. aureus EMRSA-16 252 and S. aureus MSSA 476.

S. aureus EMRSA-16 252 = test: as above; type: cell-based
Procedure: as §1

RARα = biological target: T1, RARα (Homo sapiens, UniProt P10276); test: binding to RARα
T1 sequence (P10276 1-462): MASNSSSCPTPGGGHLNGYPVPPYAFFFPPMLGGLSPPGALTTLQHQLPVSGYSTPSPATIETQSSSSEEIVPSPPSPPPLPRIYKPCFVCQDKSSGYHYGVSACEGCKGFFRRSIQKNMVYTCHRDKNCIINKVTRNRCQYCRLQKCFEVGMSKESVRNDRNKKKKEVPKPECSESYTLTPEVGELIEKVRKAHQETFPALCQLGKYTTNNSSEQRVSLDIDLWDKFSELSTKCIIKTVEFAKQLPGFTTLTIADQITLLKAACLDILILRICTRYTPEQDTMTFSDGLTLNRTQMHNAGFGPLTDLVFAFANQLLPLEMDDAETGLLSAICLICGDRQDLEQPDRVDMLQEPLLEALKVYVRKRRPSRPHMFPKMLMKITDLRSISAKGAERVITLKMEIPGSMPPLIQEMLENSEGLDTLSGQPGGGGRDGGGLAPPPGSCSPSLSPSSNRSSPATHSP

[2] = system: 5-FU-induced neutropenic male BDF1 mice; test: monotherapy and combination therapy on neutrophil recovery in 5-FU-induced neutropenic mice (Example 5); type: in vivo, mouse
Procedure: VTP194310 DMSO Stock solution was made by weighing out VTP194310 and dissolving it in DMSO (25 mg/1.33 ml DMSO).
The Vehicle solution was made by mixing 39.2 ml Corn Oil+0.8 ml DMSO.
The 3.0 mg/kg VTP194310 solution was made by mixing 39.2 ml Corn Oil+0.8 ml VTP 194310 DMSO Stock solution.
The 150 mg/kg 5-FU solution was made by weighing out 187.5 mg 5-FU and mixing it with 10 g saline.
The 10 μg/kg PEG-G-CSF solution was made by diluting 6 mg/ml stock with PBS.
Male BDF1 mice (C57Bl×DBA2), 9 weeks old, DOB: 26 Jun. 2006) were used in this experiment.
Each group of mice were treated with 150 mg/kg 5-FU intravenously on Day 0, vehicle or VTP194310 orally by gavage at 3 mg/kg/day on Days 2 to 4, and/or subcutaneously with PEG-G-CSF at 10 μg/kg on Days 5, 6, or 7 according to the regimens listed in the table. The mean numbers of total white blood cells (WBC), neutrophils, lymphocytes, red blood cells (RBC) and platelets and standard error (SE) of data obtained for each treated group are shown in FIG. 6.

RARγ = biological target: T2, RARγ (Homo sapiens, UniProt P13631); test: binding to RARγ
T2 sequence (P13631 1-454): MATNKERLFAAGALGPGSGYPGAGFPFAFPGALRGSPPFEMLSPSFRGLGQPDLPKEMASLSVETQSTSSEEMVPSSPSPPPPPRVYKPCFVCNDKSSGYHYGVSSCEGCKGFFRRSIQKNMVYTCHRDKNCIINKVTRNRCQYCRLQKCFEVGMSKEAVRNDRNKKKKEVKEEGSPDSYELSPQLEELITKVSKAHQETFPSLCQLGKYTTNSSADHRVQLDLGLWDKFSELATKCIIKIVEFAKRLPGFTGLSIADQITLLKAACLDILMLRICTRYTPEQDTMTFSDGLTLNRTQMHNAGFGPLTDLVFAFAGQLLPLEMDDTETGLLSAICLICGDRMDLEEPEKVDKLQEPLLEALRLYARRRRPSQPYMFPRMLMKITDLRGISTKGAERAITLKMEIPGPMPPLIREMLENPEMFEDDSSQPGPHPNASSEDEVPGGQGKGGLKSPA

[3] = 1 mg/kg oral at days −4 to −1 and at days 0 to 3
[4] = day 8, 1 mg/kg oral at days −4 to −1 and at days 0 to 3, CPM day 0
[5] = 2 μM incorporated into the agar
[6] = 50 μl of 2 μM in agar-well-diffusion assay

## CCc1ccc(C2=CC(C)(C)Sc3ccc(C#Cc4ccc(C(=O)O)cc4)cc32)cc1 [VTP 194310, 4-[[4-(4-ethylphenyl)-2,2-dimethyl-(2H)-thiochromen-6-yl]-ethynyl]-benzoic acid]
[1]; 1 mg/kg oral at days 4 to 7
  numbers of leukocytes and neutrophils generated: improved the numbers of leukocytes and neutrophils generated, but to an extent that was considerably less
[1]; [3]
  earliest day with significant differences in recovery: 5 day post-CPM
  rise of leukocyte and neutrophil counts compared to control leukopenic mice: rose quicker
[1]; CPM 200 mg/kg i.p., 1 mg/kg oral gavage
  leukocyte recovery: improved leukocyte recovery
[1]; [4]
  leukocyte counts in blood versus mice treated with CPM alone: ~3 fold
  neutrophil counts in blood versus mice treated with CPM alone: ~3 fold
[1]; day 8, dosed days 0 to 3
  lymphocyte counts: 4.49±0.52 ×10^3/μl
[1]; day 8, dosed days −4 to −1
  lymphocyte counts: 4.53±0.39 ×10^3/μl
[1]; dosed days −4 to −1 and days 0 to 3
  number of lymphocytes in blood compared to control leukopenic mice and Peg-r-metHuG-CSF mice: increased number of lymphocytes
S. aureus MSSA 476; 2 μM
  growth rate in liquid culture: neither strain demonstrated any alteration in growth rate
S. aureus MSSA 476; [5]
  growth of bacteria on agar: not inhibited
S. aureus MSSA 476; [6]
  growth of bacteria on agar: not inhibited
S. aureus EMRSA-16 252; 2 μM
  growth rate in liquid culture: neither strain demonstrated any alteration in growth rate
S. aureus EMRSA-16 252; [5]
  growth of bacteria on agar: not inhibited
S. aureus EMRSA-16 252; [6]
  growth of bacteria on agar: not inhibited
RARα
  Ki: 3 nM
[2]; 3 mg/kg/day Days 2 to 4 vs PEG-G-CSF 10 μg/kg Days 5, 6, or 7
  effectiveness in enhancing neutrophil recovery compared to PEG-G-CSF: more effective than PEG-G-CSF
[2]; monotherapy, 5-FU 150 mg/kg i.v. Day 0, VTP 194310 3 mg/kg/day oral Days 2 to 4, PEG-G-CSF 10 μg/kg s.c. Day 5, 6, or 7
  recovery of neutrophils relative to control: improved the recovery of neutrophils
RARγ
  Ki: 5 nM
